In patent US20220348572A1, “BRIDGED HETEROCYCLYL-SUBSTITUTED PYRIMIDINE COMPOUND, PREPARATION METHOD THEREFOR, AND PHARMACEUTICAL USE THEREOF” (The National Institutes of Pharmaceutical R&D Co., Ltd., priority 2019, published 2022) one finds IC50 data, which are given here for 26 compounds.

SMILES strings stand for the structures. Some results are limits rather than exact numbers.

By IC50 is commonly meant the point on the concentration scale where inhibition reaches its midpoint. A low value points to higher potency.

T1 sequence (P23458 866-1154 limits assumed): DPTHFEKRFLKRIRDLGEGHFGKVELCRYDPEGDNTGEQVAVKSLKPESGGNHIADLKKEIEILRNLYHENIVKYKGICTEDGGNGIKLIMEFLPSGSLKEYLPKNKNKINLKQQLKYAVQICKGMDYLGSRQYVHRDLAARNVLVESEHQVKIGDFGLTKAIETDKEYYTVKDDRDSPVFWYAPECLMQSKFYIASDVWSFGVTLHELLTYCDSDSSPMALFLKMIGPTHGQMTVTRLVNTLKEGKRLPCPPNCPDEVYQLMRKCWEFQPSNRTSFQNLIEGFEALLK

This experiment has as its target T1, JAK1 kinase (Homo sapiens, UniProt P23458).
T1 construct: purchased Invitrogen PV4744
The experiment can be described thus: In vitro inhibitory activity on JAK1 kinase (ADP-Glo Kinase Assay). The class given is biochemical. The note with it: JAK1 kinase 4 nM, 1 mM ATP. The protocol: Test Example 1: Determination of In Vitro Inhibitory Activity of the Compounds of the Present Invention on JAK1 Kinase Experimental materials: JAK1 kinase (Invitrogen, PV4744), ATP (Promega, V915B), ADP-Glo Kinase Assay (Promega, V9101), IRS1 (Signalchem, 140-58-1000). Sample preparation: The compounds of the present invention and the control product were dissolved in DMSO solvent respectively to formulate into 10 mM initial liquid. The maximum concentration of the compound was 10 μM, 3-fold dilution, 10 concentration gradients, and duplicate wells for each concentration gradient. Experimental processs: 0.1 μL of the compound to be tested was transferred into a 384 reaction plate (PE, 6007290) via Echo and centrifuged at 1000 rpm/min for 1 min. 5 μL JAK1 kinase (final concentration of 4 nM) was transferred into the 384 reaction plate, which was then centrifuged at 1000 rpm/min for 1 min, and incubated at 25° C. for 15 min. 5 μL substrate mixture (1 mM ATP, IRS1 0.05 mg/ml, kinase buffer solution) was transferred into the 384 reaction plate, which was then centrifuged at 1000 rpm/min for 1 min, and incubated at 25° C. for 60 min. 10 μL ADP-Glo was transferred into the 384 reaction plate, which was then centrifuged at 1000 rpm/min for 1 min, and incubated at 25° C. for 40 min. 20 μL test solution was transferred into the 384 reaction plate, which was then centrifuged at 1000 rpm/min for 1 min and incubated at 25° C. for 40 min. RLU (Relative luminescence unit) signal was read by using an Envision multifunctional plate reader. The signal intensity was used to characterize the degree of the kinase activity. […] IC50 value of 0-100 nM is shown as A, IC50 value of 100-300 nM is shown as B, IC50 value of 300-1000 nM is shown as C, and IC50 value which is greater than 1000 nM is shown as D. NT means not tested.
(In general: ADP-Glo turns the ADP formed in a reaction into a luminescent signal.)
Regarding `Cc1cnc(Nc2cn(C)nc2C)nc1C1=C[C@H]2CC[C@@H](C1)N2C(=O)NCC(F)(F)F` [Compound 26-b, (1R,5S)-3-(2-((1,3-dimethyl-1H-pyrazol-4-yl)amino)-5-methylpyrimidin-4-yl)-N-(2,2,2-trifluoroethyl)-8-azabicyclo[3.2.1]oct-2-ene-8-carboxamide], the IC50 is < 100 nM.

Take `Cn1cc(Nc2nccc(C3=CC4CCC(C3)N4C3(CC#N)CN(C(=O)[C@@H]4CC4(F)F)C3)n2)cn1` (stereo partly drawn) [Compound 85, 2-(1-((S)-2,2-difluorocyclopropane-1-carbonyl)-3-(3-(2-((1-methyl-1H-pyrazol-4-yl)amino)pyrimidin-4-yl)-8-azabicyclo[3.2.1]oct-2-en-8-yl)azetidin-3-yl)acetonitrile]: the IC50 is > 1000 nM.

`Cc1cnc(Nc2cnn(C)c2)nc1C1=C[C@@H]2CC[C@H](C1)N2C(=O)[C@@H]1CC1(F)F` [Compound 22-a, ((S)-2,2-difluorocyclopropyl)((1S,5R)-3-(5-methyl-2-((1-methyl-1H-pyrazol-4-yl)amino)pyrimidin-4-yl)-8-azabicyclo[3.2.1]oct-2-en-8-yl)methanone] had an IC50 of 100 to 300 nM.

Regarding `Cn1cc(Nc2nccc(C3=CC4CCC(C3)N4C(=O)CC3CC(F)(F)C3)n2)cn1` (centres unmarked) [Compound 79, 2-(3,3-difluorocyclobutyl)-1-(3-(2-((1-methyl-1H-pyrazol-4-yl)amino)pyrimidin-4-yl)-8-azabicyclo[3.2.1]oct-2-en-8-yl)-1-acetone], the IC50 was < 100 nM.

Turning to `Cn1cc(Nc2nccc(C3=C[C@H]4CC[C@@H](C3)N4C(=O)NCC(F)(F)F)n2)cn1` [Compound 3-b, (1R,5S)-3-(2-((1-methyl-1H-pyrazol-4-yl)amino)pyrimidin-4-yl)-N-(2,2,2-trifluoroethyl)-8-azabicyclo[3.2.1]oct-2-ene-8-carboxamide], the IC50 was < 100 nM.

For the compound `Cn1cc(Nc2nccc(C3=CC4CCC(C3)N4C(=O)C3(C(F)(F)F)CC3)n2)cn1` (centres unmarked) [Compound 52, (3-(2-((1-methyl-1H-pyrazol-4-yl)amino)pyrimidin-4-yl)-8-azabicyclo[3.2.1]oct-2-en-8-yl)(1-(trifluoromethyl)cyclopropyl)methanone], the IC50 was > 1000 nM.

On to `Cc1cnc(Nc2cnn(CC(C)(C)O)c2)nc1C1=C[C@@H]2CC[C@H](C1)N2C(=O)NCC(F)(F)F` (single isomer, unassigned) [Compound 29-a], for which the IC50 was < 100 nM.

`O=C(NCC(F)(F)F)N1C2C=C(c3ccnc(Nc4cnn(C5CC5)c4)n3)CC1CC2` (centres unmarked) [Compound 43, 3-(2-((1-cyclopropyl-1H-pyrazol-4-yl)amino)pyrimidin-4-yl)-N-(2,2,2-trifluoroethyl)-8-azabicyclo[3.2.1]oct-2-ene-8-carboxamide]: the IC50 is < 100 nM.

For the compound `Cn1cc(Nc2nccc(C3=CC4CCC(C3)N4C(=O)C3CCOCC3)n2)cn1` (centres unmarked) [Compound 78], the IC50 is > 1000 nM.

In turn, `CC(C)n1cc(Nc2nccc(C3=CC4CCC(C3)N4C(=O)[C@@H]3CC3(F)F)n2)cn1` (stereo partly drawn) [Compound 46, ((S)-2,2-Difluorocyclopropyl)(3-(2-((1-isopropyl-1H-pyrazol-4-yl)amino)pyrimidin-4-yl)-8-azabicyclo[3.2.1]oct-2-en-8-yl)methanone] yielded an IC50 of 100 to 300 nM.

On to `NC(=O)Cn1cc(Nc2nccc(C3=CC4CCC(C3)N4C(=O)[C@@H]3CC3(F)F)n2)cn1` (stereo partly drawn) [Compound 38, 2-(4-((4-(8-((S)-2,2-Difluorocyclopropane-1-formyl)-8-azabicyclo[3.2.1]oct-2-en-3-yl)pyrimidin-2-yl)amino)-1H-pyrazol-1-yl)acetamide], for which the IC50 was < 100 nM.

In the case of `Cn1cc(Nc2ncc(C#N)c(C3=CC4CCC(C3)N4C(=O)NCC(F)(F)F)n2)cn1` (centres unmarked) [Compound 35, 3-(5-cyano-2-((1-methyl-1H-pyrazol-4-yl)amino)pyrimidin-4-yl)-N-(2,2,2-trifluoroethyl)-8-azabicyclo[3.2.1]oct-2-ene-8-carboxamide], the IC50 fell in the range of 100 to 300 nM.

Compound `Cn1cc(Nc2nccc(C3=CC4CCC(C3)N4C(=O)C(=O)NCC(F)(F)F)n2)cn1` (centres unmarked) [Compound 82, 2-(3-(2-((1-methyl-1H-pyrazol-4-yl)amino)pyrimidin-4-yl)-8-azabicyclo[3.2.1]oct-2-en-8-yl)-2-oxo-N-(2,2,2-trifluoroethyl)acetamide] gave a half-maximal inhibitory concentration (IC50) of 300 to 1000 nM.

In the case of `Cn1cc(Nc2nccc(C3=CC4CCC(C3)N4C(=O)CC#N)n2)cn1` (centres unmarked) [Compound 61, 3-(3-(2-((1-methyl-1H-pyrazol-4-yl)amino)pyrimidin-4-yl)-8-azabicyclo[3.2.1]oct-2-en-8-yl)-3-oxopropionitrile], the IC50 was 100 to 300 nM.

Turning to `Cn1cc(Nc2nccc(C3=CC4CCC(C3)N4C(=O)NCC(F)F)n2)cn1` (centres unmarked) [Compound 44, N-(2,2-difluoroethyl)-3-(2-((1-methyl-1H-pyrazol-4-yl)amino)pyrimidin-4-yl)-8-azabicyclo[3.2.1]oct-2-ene-8-carboxamide], the IC50 was < 100 nM.

`O=C([C@@H]1CC1(F)F)N1C2C=C(c3ccnc(Nc4cnn(C5COC5)c4)n3)CC1CC2` (stereo partly drawn) [Compound 37, ((S)-2,2-difluorocyclopropyl)(3-(2-((1-(oxetan-3-yl)-1H-pyrazol-4-yl)amino)pyrimidin-4-yl)-8-azabicyclo[3.2.1]oct-2-en-8-yl)methanone] came in with an IC50 of 300 to 1000 nM.

For `Cc1cnc(Nc2cnn(C)c2)nc1C1=CC2CCC(C1)N2C(=O)[C@@H]1CC1(F)F` (stereo partly drawn) [Compound 22, ((S)-2,2-difluorocyclopropyl)(3-(5-methyl-2-((1-methyl-1H-pyrazol-4-yl)amino)pyrimidin-4-yl)-8-azabicyclo[3.2.1]oct-2-en-8-yl)methanone], the half-inhibitory concentration (IC50) was < 100 nM.

The compound `Cn1cc(Nc2nccc(C3=CC4CCC(C3)N4C(=O)NCCC(F)(F)F)n2)cn1` (centres unmarked) [Compound 57, 3-(2-((1-methyl-1H-pyrazol-4-yl)amino)pyrimidin-4-yl)-N-(3,3,3-trifluoropropyl)-8-azabicyclo[3.2.1]oct-2-ene-8-carboxamide] registered an IC50 of 300 to 1000 nM.

The compound `CC(C(=O)N1C2C=C(c3ccnc(Nc4cnn(C)c4)n3)CC1CC2)C(F)(F)F` (centres unmarked) [Compound 67, 3,3,3-trifluoro-2-methyl-1-(3-(2-((1-methyl-1H-pyrazol-4-yl)amino)pyrimidin-4-yl)-8-azabicyclo[3.2.1]oct-2-en-8-yl)-1-acetone] gave an IC50 of 300 to 1000 nM.

`O=C(NCC(F)(F)F)N1C2C=C(c3nc(Nc4cnn(C(F)F)c4)ncc3F)CC1CC2` (centres unmarked) [Compound 24, 3-(2-((1-(difluoromethyl)-1H-pyrazol-4-yl)amino)-5-fluoropyrimidin-4-yl)-N-(2,2,2-trifluoroethyl)-8-azabicyclo[3.2.1]oct-2-ene-8-carboxamide]: the IC50 was < 100 nM.

Consider `O=C(NCC(F)(F)F)N1C2C=C(c3ccnc(Nc4cnn(CCO)c4)n3)CC1CC2` (centres unmarked) [Compound 42, 3-(2-((1-(2-hydroxyethyl)-1H-pyrazol-4-yl)amino)pyrimidin-4-yl)-N-(2,2,2-trifluoroethyl)-8-azabicyclo[3.2.1]oct-2-ene-8-carboxamide], for which the IC50 was < 100 nM.

With `Cc1cnc(Nc2cnn(C)c2)nc1C1=C[C@@H]2CC[C@H](C1)N2C(=O)NCC(F)(F)F` [Compound 19-a, (1S,5R)-3-(5-methyl-2-((1-methyl-1H-pyrazol-4-yl)amino)pyrimidin-4-yl)-N-(2,2,2-trifluoroethyl)-8-azabicyclo[3.2.1]oct-2-ene-8-carboxamide], the IC50 was < 100 nM.

As to `C[C@@H](NC(=O)N1C2C=C(c3ccnc(Nc4cnn(C)c4)n3)CC1CC2)C(F)(F)F` (stereo partly drawn) [Compound 56, 3-(2-((1-Methyl-1H-pyrazol-4-yl)amino)pyrimidin-4-yl)-N-((R)-1,1,1-trifluoropropane-2-yl)-8-azabicyclo[3.2.1]oct-2-ene-8-carboxamide], the IC50 lay within 300 to 1000 nM.

On to `Cn1cc(Nc2nccc(C3=C[C@@H]4CC[C@H](C3)N4C(=O)NCC(F)(F)F)n2)cn1` [Compound 3-a, (1S,5R)-3-(2-((1-methyl-1H-pyrazol-4-yl)amino)pyrimidin-4-yl)-N-(2,2,2-trifluoroethyl)-8-azabicyclo[3.2.1]oct-2-ene-8-carboxamide], for which the IC50 is < 100 nM.

As for `Cn1cc(Nc2nccc(C3=CC4CCC(C3)N4C(=O)C3(C#N)CC3)n2)cn1` (centres unmarked) [Compound 63, 1-(3-(2-((1-methyl-1H-pyrazol-4-yl)amino)pyrimidin-4-yl)-8-azabicyclo[3.2.1]oct-2-ene-8-formyl)cyclopropane-1-carbonitrile], the IC50 lay within 300 to 1000 nM.

In the case of `Cc1cnc(Nc2cnn(CC(C)(C)O)c2)nc1C1=CC2CCC(C1)N2C(=O)NCC(F)(F)F` (centres unmarked) [Compound 29, 3-(2-((1-(2-hydroxy-2-methylpropyl)-1H-pyrazol-4-yl)amino)-5-methylpyrimidin-4-yl)-N-(2,2,2-trifluoroethyl)-8-azabicyclo[3.2.1]oct-2-ene-8-carboxamide], the IC50 is < 100 nM.
